Five molecules from patent US20140155397A1, “EMT SIGNATURES AND PREDICTIVE MARKERS AND METHOD OF USING THE SAME” (Board of Regents, priority 2011, published 2014) can be followed below.

One assay deals with NSCLC patients. As to the kind of experiment: BATTLE clinical trial, 8-week disease control and progression-free survival. The format is in vivo, human. An excerpt:
BATTLE (Biomarker-integrated Approaches of Targeted Therapy for Lung Cancer Elimination) was a randomized, biomarker-based clinical trial for patients with recurrent or metastatic NSCLC in the second-line setting (Trial registration ID: NCT00409968). Kim E. S. H. R., The BATTLE Trial: Personalizing Therapy for Lung Cancer, Cancer Discovery 1:43-51 (2011). mRNA from tumors obtained via core-needle biopsy at enrollment were profiled on Human Gene 1.0 ST array, Affymetrix. Array results were deposited in the GEO repository (GSE33072).
We used pretreatment gene expression profiles (Affymetrix […]) from 101 chemo-refractory patients in our Biomarkers-Integrated Approaches of Targeted Therapy for Lung Cancer Elimination (BATTLE) treated with E, E+bexarotene (EB), sorafenib (S), or vandetanib (V). 24 cases of with EGFR & KRAS tumors treated with E or EB were compared to train the signature (two-sided t-test), using the primary end-point of the trial[8-week disease control (8 with DC)]. Principal component (PC) analysis and a logistic regression model were used to develop the signature. Gene expression profiles from 108 NSCLC cell lines (Illumina), with available E IC50 (N=94) and DNA methylation profiling (N=66, Illumina), were used for in vitro studies.

For the next assay, the system named is NSCLC cell lines. As to the kind of experiment: Drug sensitivity (growth inhibition, MTS assay) of epithelial versus mesenchymal NSCLC cell lines. Type of assay: cell-based. An excerpt: (§1) Average values were used for analysis as described. […] Chou T. C., et al., Quantitative Analysis of Dose-Effect Relationships: The Combined Effects of Multiple Drugs or Enzyme Inhibitors. Adv Enzyme Regul.
The EMT signature was derived in 54 DNA fingerprinted NSCLC cell lines profiled on Affymetrix U133A, B, and Plus2.0 arrays and tested on the Illumina WGv2 and WGv3 platforms and in an independent set of head and neck cancer lines (HNC). E-cadherin and other protein levels were quantified by reverse phase protein array and correlated with the first principal component of the EMT signature. IC50s were determined for NSCLC cell lines by MTS assay. Response to erlotinib was evaluated in patients treated in the BATTLE clinical trial using eight-week disease […] and progression free survival.

The test system of a further assay is H157. Put plainly: Proliferation, CellTiter-Glo Luminescent Cell Viability. As to conditions: Homo sapiens, NCI-H157, single agent. The format is cell-based.
Source text: as §1

For another assay, the system named is H2882. The description is as above. Type of assay: cell-based. Particulars: NCI-H2882, single agent.
Source text: as §1

A further assay concerns H460. Described as above. The format is cell-based. Particulars: Homo sapiens, NCI-H460, single agent.
Source text: as §1

Another assay concerns A549. Described as above. Type of assay: cell-based. Particulars: Homo sapiens, single agent.
Source text: as §1

Another assay concerns Calu-1. The assay is described as above. The format is cell-based. Particulars: Homo sapiens, single agent.
Source text: as §1

A further assay concerns H1299. The description is as above. Type of assay: cell-based. Particulars: Homo sapiens, NCI-H1299, single agent.
Source text: as §1

For assay [1], the system named is Cells expressing high levels of Axl. Put plainly: Proliferation of six mesenchymal cell lines expressing high levels of Axl (summary). Particulars: single agent. Type of assay: cell-based.
Source text: as §1

pIC50: −log10 of the molar value. Like-named read-outs stand apart in the source and are kept apart here.

Turning to `C#Cc1cccc(Nc2ncnc3cc(OCCOC)c(OCCOC)cc23)c1` [Erlotinib, erlotinib], the results for the “8-week DC rate” value in the assay with NSCLC patients (5-gene signature-negative group) and in the assay on NSCLC patients (5-gene signature-positive group) were 0% and 83%, respectively. The “Median PFS” value with NSCLC patients (signature-negative group) is on record as 7.2 weeks; in the assay on NSCLC patients (signature-positive group) it was 12.5 weeks. Further, the “Progression-free survival hazard ratio” value with NSCLC patients (signature-positive versus signature-negative group, 95% CI 0.03-0.46) worked out at 0.12. The “Patients with 8-week disease control (DC)” value with NSCLC patients (wildtype EGFR and KRAS patients with mesenchymal signatures) is reported as 1/5. In the assay on NSCLC cell lines (SGI-7079 versus erlotinib, p<0.001 by Wilcoxon test), the “Sensitivity of mesenchymal cells” value is recorded as “uniformly resistant”. Moreover, the “Fold higher mean IC50 in mesenchymal versus epithelial cell lines” value (“Fold higher mean IC50” for short) in the assay on NSCLC cell lines (all NSCLC cell lines) worked out at 3.7 fold; in the assay with NSCLC cell lines (subset with wild-type EGFR and wild-type KRAS) it was 2 fold. Further, the pIC50 is 4.31 with H157; less than 4.00 with H2882; less than 4.00 with H460; 4.87 in the assay on A549; less than 4.00 in the assay on Calu-1; less than 4.00 in the assay with H1299. In addition, the negative-log IC50 (pIC50) in assay [1] (read-out: IC50 range across cell lines) is no more than 4.87; in assay [1] (read-out: Mean IC50 across cell lines), 4.11.

As to `CS(=O)(=O)N1CCN(Cc2cc3nc(-c4cccc5[nH]ncc45)nc(N4CCOCC4)c3s2)CC1` [GDC0941], the “Fold higher mean IC50” value in the assay on NSCLC cell lines (all NSCLC cell lines) is given as 1.9 fold.

In the case of `NC1(c2ccc(-c3nc4ccn5c(=O)[nH]nc5c4cc3-c3ccccc3)cc2)CCC1` [MK2206], the “Fold higher mean IC50” value with NSCLC cell lines (all NSCLC cell lines) is reported as 1.5 fold.

Regarding `CNC(=O)c1cc(Oc2ccc(NC(=O)Nc3ccc(Cl)c(C(F)(F)F)c3)cc2)ccn1` [sorafenib], in the assay on NSCLC cell lines (all NSCLC cell lines), the “Fold higher mean IC50” value is on record as “not more resistant”.

Take `Nc1ncnc2c1nc(N)n2[C@@H]1O[C@H](CO)[C@@H](O)[C@H]1O` [8-amino-adenosine]: the “Fold higher mean IC50” value in the assay on NSCLC cell lines (all NSCLC cell lines) amounted to 1.7 fold.
